Laboratory results as given in the NIST ThermoML archive (doi:10.1016/j.jct.2005.12.003).
± gives the expanded uncertainty stated by the source.

What was measured:
[1] = Liquid; for mass density: 298.15 K, 101.33 kPa; for vapor or sublimation pressure: refractive and density measurements
[2] = refractive index (Na D-line) (dimensionless); settings: 298.15 K; 101.33 kPa; Liquid; Standard Abbe refractometry

Row | Compound | mass density [1] [kg/m3] | vapor or sublimation pressure ([1]; 353.25 K) [kPa] | refractive index [2] | vapor or sublimation pressure ([1]; 404.82 K) [kPa] | vapor or sublimation pressure ([1]; 353.89 K) [kPa]
1 | c1ccccc1 [benzene] | 873.6 ± 0.2 | 101.3 | 1.49692 ± 0.00072 |  | 
2 | Clc1ccccc1 [chlorobenzene] | 1100.8 ± 0.5 |  | 1.52176 ± 0.00075 | 101.3 | 
3 | C1CCCCC1 [cyclohexane] | 773.7 ± 0.3 |  | 1.4232 ± 0.00072 |  | 101.3
